The values that follow come from US11814390B2, “Crystalline forms of 2-[3-[4-amino-3-(2-fluoro-4-phenoxy-phenyl)-1H-pyrazolo[3,4-D]pyrimidin-1-yl]piperidine-1-carbonyl]-4-methyl-4-[4-(oxetan-3-yl)piperazin-1-yl]pent-2-enenitrile” (Principia Biopharma Inc., priority 2020, dated 2023).

Data set [1] can be described thus: Conversion between crystalline forms over time / relative thermodynamic stability at room temperature. In kind it is physicochemical. As to the method: Several crystallization experiments were conducted in as part of a polymorph study for Compound (I). The experiments comprised different crystallization techniques such as suspension equilibration experiments, precipitations, cooling crystallizations, and vapor diffusion experiments.

Data set [2] is described as follows: Water content upon storage at high relative humidity (hygroscopicity). The following applies: storage at 85% relative humidity (RH). In kind it is physicochemical.

Entries after “also recorded” stand apart in the source; their conditions may differ.

As for `CC(C)(C=C(C#N)C(=O)N1CCC[C@@H](n2nc(-c3ccc(Oc4ccccc4)cc3F)c3c(N)ncnc32)C1)N1CCN(C2COC2)CC1` [Crystalline Form B, (R)-2-[3-[4-amino-3-(2-fluoro-4-phenoxy-phenyl)pyrazolo[3,4-d]pyrimidin-1-yl]piperidine-1-carbonyl]-4-methyl-4-[4-(oxetan-3-yl)piperazin-1-yl]pent-2-enenitrile], in data set [1] (at room temperature), the “relative thermodynamic stability of crystalline form” value is “may be thermodynamically more stable than crystalline Form A; also recorded: may be more thermodynamically more stable than crystalline Form C”.
In the case of `CC(C)(C=C(C#N)C(=O)N1CCC[C@@H](n2nc(-c3ccc(Oc4ccccc4)cc3F)c3c(N)ncnc32)C1)N1CCN(C2COC2)CC1` [crystalline Form A, (R)-2-[3-[4-amino-3-(2-fluoro-4-phenoxy-phenyl)pyrazolo[3,4-d]pyrimidin-1-yl]piperidine-1-carbonyl]-4-methyl-4-[4-(oxetan-3-yl)piperazin-1-yl]pent-2-enenitrile], the “water content upon storage” value in data set [2] was “less than 1%”. In addition, in data set [1] (over time), the “conversion of crystalline form over time” value was “may convert to crystalline Form B over time”.
